# According to patent publication US6046239A, “Anthranilic acid analogs” (American Home Products Corporation, priority 1998, dated 2000):
# Legend:
# [1] = molecular target: T1, calcium-dependent large conductance potassium channels (maxi K^+) (Rattus norvegicus, UniProt Q62976); assay: Potassium channel activation, whole cell patch clamp in isolated rat detrusor cells; format: cell-based; settings: 10 μM in superfusate; isolated rat bladder cells
# T1 construct: endogenous in cells; host or cells: freshly isolated rat detrusor (urinary bladder smooth muscle) cells
# Description: Potassium channel activation by compounds of the present invention was established by examining the effect of the compound of Example 1 on calcium-dependent large conductance potassium channels (maxi K^+) as follows:
# Rat detrusor cells were isolated in a manner previously described for guinea-pig detrusor (Sheldon and Argentieri, 1995). Male Sprague-Dawley rats (200-400 grams) were euthanized by CO2 inhalation and exsanguination. Their urinary bladders were rapidly removed and placed in 37° C. physiological solution with the following composition (mM): Na glutamate (80.0), NaCl (54.7), KCl (5.0), NaHCO3 (25.0), MgCl2.2H2 O (2.5), D-glucose (11.8) and CaCl2 (0.2) gassed with CO2 --O2, 95%/5% for a final pH of 7.4. The dome of the bladder was isolated from the trigon region and the mucosa was removed. This tissue was then cut into 2-3 mm wide strips and placed in fresh buffer for 1 hour. Tissues were then transferred into 10.0 ml of an isolation buffer containing the above composition plus collagenase type VIII (1.0 mg/ml) and pronase (0.25 mg/ml). After 10 minutes the isolation buffer was replaced with fresh isolation buffer for an additional 10 min. […]
# Whole cell recordings were made using broken patch assess. […] After stability was achieved control currents were recorded. […] Currents were recorded for 5 to 10 minutes or until compound effects reached steady state. […]
# [2] = system: Aorta; assay: Inhibition of contractions in aorta (indication of selectivity); format: cell-based
# [3] = system: Isolated Rat Bladder Strips; assay: Inhibition of contractions in isolated rat bladder strips; format: cell-based
# Description: Sprague-Dawley rats (150-200 g) are rendered unconscious by CO2 asphyxiation and then euthanized by cervical dislocation. […] The bladder is opened and then cut into strips 1-2 mm in width and 7-10 mm in length. The strips are subsequently suspended in a 10 mL tissue bath under an initial resting tension of 1.5 g. The strips are held in place by two surgical clips one of which is attached to a fixed hook while the other is attached to an isometric force transducer. […] The carbachol is then washed out and the tissue allowed to relax to its resting level of activity. Following a further 30 min period of recovery an additional 15 mM KCl are introduced into the tissue bath. […] Following stabilization of this enhanced level of contractile activity, incremental increases in the concentration of test compound or vehicle are introduced into the tissue bath. Contractile activity is measured for each compound or vehicle concentration during the last minute of a 30 minute challenge.
# [4] = system: swelling induced chloride channel current; assay: Chloride channel blockade, swelling induced chloride current in bladder cells; format: cell-based, guinea pig; settings: bladder cell, ICl type swelling (210 mOsm), 60 mV
# From the text: Normal human bronchial epithelial cells (NHBE) were commercially available from Clonetics Corporation (San Diego, Calif.) and bladder cells were isolated from rat bladder.
# The normal external solution contained (in mM): N-methyl d-Glucamine chloride (NMDGCl). 140, MgCl2 2, CaCl2 2 and 4-(2-hydroxyethyl)-1-piperazine ethanesulfonic acid (HEPES) 10. The normal pipette solution contained (in mM): NMDGCl. 125, HEPES 10, MgCl2 2, ethylenebis(oxonitrilo)tetaaacetate (EGTA) 2, and ATPMg 5, the pH adjusted to 7.3 with TRIS. To identify the leak conductance from depolarization, internal Cl ion concentration was reduced to 40 mM using glutamic acid (ECl approximately -31 mV according Nernst equation). The osmolarity for standard external solution was about 280 mOsm. Hypotonic solutions were obtained by diluting the normal external solution with distilled water.
# The whole cell voltage clamp recording techniques were utilized to record membrane ionic currents. The volume of the recording chamber was 1 ml and the rate of superfusion was 4 ml/min. Membrane currents were recorded using an Axopatch 200A Patch Clamp Amplifier (Axon Instruments, Inc., Foster City, Calif.). Under voltage clamp conditions, the cells were stimulated at 0.2 Hz to be sure channels were completely recovered between two voltage steps. […]
# T1 sequence (Q62976 whole entry): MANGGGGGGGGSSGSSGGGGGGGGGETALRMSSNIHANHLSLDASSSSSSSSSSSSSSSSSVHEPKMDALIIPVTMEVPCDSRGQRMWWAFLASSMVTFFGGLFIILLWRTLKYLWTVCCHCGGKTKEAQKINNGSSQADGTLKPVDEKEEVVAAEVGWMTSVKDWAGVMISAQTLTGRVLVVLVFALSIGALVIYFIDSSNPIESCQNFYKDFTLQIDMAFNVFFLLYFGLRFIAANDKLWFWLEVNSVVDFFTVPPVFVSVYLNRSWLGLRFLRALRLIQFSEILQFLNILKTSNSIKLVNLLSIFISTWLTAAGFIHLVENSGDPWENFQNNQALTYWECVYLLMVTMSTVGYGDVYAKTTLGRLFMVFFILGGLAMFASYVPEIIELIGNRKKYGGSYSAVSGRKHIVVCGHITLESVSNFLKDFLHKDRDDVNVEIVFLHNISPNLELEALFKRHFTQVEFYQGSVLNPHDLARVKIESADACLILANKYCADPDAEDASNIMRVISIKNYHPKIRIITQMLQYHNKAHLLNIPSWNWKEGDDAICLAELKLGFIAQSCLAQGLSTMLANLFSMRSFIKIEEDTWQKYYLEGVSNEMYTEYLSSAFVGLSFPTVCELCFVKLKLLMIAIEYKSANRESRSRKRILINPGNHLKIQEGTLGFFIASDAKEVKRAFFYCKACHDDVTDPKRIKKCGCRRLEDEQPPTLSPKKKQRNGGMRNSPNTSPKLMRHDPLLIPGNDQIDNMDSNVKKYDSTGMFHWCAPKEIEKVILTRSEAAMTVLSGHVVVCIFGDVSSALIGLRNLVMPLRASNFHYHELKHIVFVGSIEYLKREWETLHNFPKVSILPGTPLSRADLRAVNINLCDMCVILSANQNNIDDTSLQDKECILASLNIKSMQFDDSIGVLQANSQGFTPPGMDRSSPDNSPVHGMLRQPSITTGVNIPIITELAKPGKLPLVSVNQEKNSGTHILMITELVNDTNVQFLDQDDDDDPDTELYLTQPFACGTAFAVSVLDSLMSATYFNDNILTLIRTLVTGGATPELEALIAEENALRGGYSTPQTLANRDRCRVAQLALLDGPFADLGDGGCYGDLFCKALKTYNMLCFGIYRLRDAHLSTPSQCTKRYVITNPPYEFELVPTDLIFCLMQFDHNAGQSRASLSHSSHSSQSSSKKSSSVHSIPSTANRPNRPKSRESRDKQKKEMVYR
# T1 sequence (P97678 whole entry partner): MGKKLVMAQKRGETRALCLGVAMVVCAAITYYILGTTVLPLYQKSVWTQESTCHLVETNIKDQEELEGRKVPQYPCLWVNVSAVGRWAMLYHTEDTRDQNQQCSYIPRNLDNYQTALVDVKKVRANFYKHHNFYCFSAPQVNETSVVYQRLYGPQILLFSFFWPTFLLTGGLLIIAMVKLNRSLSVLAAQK
smiles,measurement,setting,value
"C/C(=C\c1ccc(C(F)(F)F)cc1)C(=O)Nc1ccccc1C(=O)[O-].[Li+] [Example 1, Step 4, (E)-2-[2-Methyl-3-(4-trifluoromethyl-phenyl)-acryloylamino]-benzoic acid lithium salt]",effect on outward current,[1],increase in outward current that was reversible upon washout
same,IC50,[2],41.9 ± 8.4 µM
same,IC50,"[3]; contractions enhanced by additional 15 mM KCl, isolated rat bladder strips, read-out: IC50 /μM Bladder (B)",1.07 ± 0.37 µM
same,IC50 (A)/ IC50 (B),"[3]; ratio aorta/bladder, indication of selectivity",39.6
same,% blockade 20 μM,[4],67%
